# Measured values as given in patent publication US8952024B2, “Herbicidal pyrimidone derivatives” (E I du Pont de Nemours and Company, priority 2009, dated 2015).
# Columns and labels:
# Type in all cases: in vivo
# wild oat (Avena fatua) = experiment: Test B pre-/postemergence plant response; conditions: Postemergence
# How it was run: (§1)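 Test compounds, formulated in a non-phytotoxic solvent mixture with surfactant, are applied to the soil surface (loam and sand blend) right after seeding, or sprayed over plants at the 1- to 4-leaf stage grown in peat moss/vermiculite medium. After 13 to 15 days under glasshouse conditions, each species is scored visually from 0 (no effect) to 100 (complete control) against controls.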
# [1] = test system: giant foxtail (Setaria faberii); experiment: Test B pre-/postemergence plant response; conditions: Postemergence
# How it was run: as §1
# [2] = test system: blackgrass (Alopecurus myosuroides); experiment: Test B pre-/postemergence plant response; conditions: Postemergence
# How it was run: as §1
# corn (Zea mays) = experiment: Test B pre-/postemergence plant response; conditions: Postemergence
# How it was run: as §1
# [3] = test system: Italian ryegrass (Lolium multiflorum); experiment: Test B pre-/postemergence plant response
# How it was run: as §1
# [4] = test system: morningglory (Ipomoea coccinea); experiment: Test B pre-/postemergence plant response; conditions: Postemergence
# How it was run: as §1
# [5] = test system: downy bromegrass (Bromus tectorum); experiment: Test B pre-/postemergence plant response; conditions: Postemergence
# How it was run: as §1
# [6] = test system: pigweed (Amaranthus retroflexus); experiment: Test B pre-/postemergence plant response; conditions: Postemergence
# How it was run: as §1
# [7] = test system: cocklebur (Xanthium strumarium); experiment: Test B pre-/postemergence plant response; conditions: Postemergence
# How it was run: as §1
# [8] = test system: Surinam grass (Brachiaria decumbens); experiment: Test B pre-/postemergence plant response
# How it was run: as §1
# [9] = test system: canarygrass (Phalaris minor); experiment: Test B postemergence plant response; conditions: Postemergence
# How it was run: (§2)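 Plants grown in peat/vermiculite medium were sprayed postemergence at 2–18 cm height (1- to 4-leaf stage). After 13–15 days in the greenhouse, response was rated visually against untreated controls on a 0–100 scale (0 no effect, 100 complete control).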
# [10] = test system: windgrass (Apera spica-venti); experiment: Test B postemergence plant response; conditions: Postemergence
# How it was run: as §2
# [11] = test system: chickweed (Stellaria media); experiment: Test B postemergence plant response; conditions: Postemergence
# How it was run: as §2
# [12] = 31 g ai/ha, scale 0 to 100 (0 no effect, 100 complete control)
# [13] = 62 g ai/ha, scale 0 (no effect) to 100 (complete control), 13 to 15 days
# [14] = 125 g ai/ha, visual rating after 13 to 15 days, scale 0 (no effect) to 100 (complete control)
# [15] = Postemergence, 31 g ai/ha, scale 0 to 100 (0 no effect, 100 complete control)
# [16] = Postemergence, 62 g ai/ha, scale 0 (no effect) to 100 (complete control), 13 to 15 days
# [17] = Postemergence, 125 g ai/ha, visual rating after 13 to 15 days, scale 0 (no effect) to 100 (complete control)
# [18] = Postemergence, 250 g ai/ha, scale 0 to 100
# [19] = Preemergence, 0 is no effect, 100 is complete control, rated after 13 to 15 days, application rate of this section not shown
substance,measurement,setting,value
"5-[(2-hydroxy-6-oxo-1-cyclohexen-1-yl)carbonyl]-2,3-diphenyl-4(3H)-pyrimidinone [Compound 2]","Plant response rating, Oat, Wild",wild oat (Avena fatua); [12],5
same,"Plant response rating, Oat, Wild",wild oat (Avena fatua); [13],5
same,"Plant response rating, Oat, Wild",wild oat (Avena fatua); [14],10
same,"Oat, Wild plant response rating","wild oat (Avena fatua); 250 g ai/ha, scale 0 to 100",10
same,"Plant response rating, Foxtail, Giant",[1]; [12],0
same,"Plant response rating, Foxtail, Giant",[1]; [13],15
same,"Plant response rating, Foxtail, Giant",[1]; [14],20
same,"Foxtail, Giant plant response rating","[1]; 250 g ai/ha, scale 0 to 100",50
same,"Plant response rating, Blackgrass",[2]; [12],0
same,"Plant response rating, Blackgrass",[2]; [13],0
same,"Plant response rating, Blackgrass",[2]; [14],5
same,Blackgrass plant response rating,"[2]; 250 g ai/ha, scale 0 to 100",5
same,"Plant response rating, Corn",corn (Zea mays); [12],0
same,"Plant response rating, Corn",corn (Zea mays); [13],0
same,"Plant response rating, Corn",corn (Zea mays); [14],0
same,Corn plant response rating,"corn (Zea mays); 250 g ai/ha, scale 0 to 100",0
same,"Plant response rating, Ryegrass, Italian",[3]; [15],0
same,"Plant response rating, Ryegrass, Italian",[3]; [16],0
same,"Plant response rating, Ryegrass, Italian",[3]; [17],0
same,"Ryegrass, Italian plant response rating",[3]; [18],0
same,"Ryegrass, Italian plant response rating (0 to 100 scale)",[3]; [19],0
same,"Plant response rating, Morningglory",[4]; [12],0
same,"Plant response rating, Morningglory",[4]; [13],20
same,"Plant response rating, Morningglory",[4]; [14],45
same,Morningglory plant response rating,"[4]; 250 g ai/ha, scale 0 to 100",65
same,"Plant response rating, Bromegrass, Downy",[5]; [12],0
same,"Plant response rating, Bromegrass, Downy",[5]; [13],0
same,"Plant response rating, Bromegrass, Downy",[5]; [14],0
same,"Bromegrass, Downy plant response rating","[5]; 250 g ai/ha, scale 0 to 100",10
same,"Plant response rating, Pigweed",[6]; [12],65
same,"Plant response rating, Pigweed",[6]; [13],80
same,"Plant response rating, Pigweed",[6]; [14],85
same,Pigweed plant response rating,"[6]; 250 g ai/ha, scale 0 to 100",90
same,"Plant response rating, Cocklebur",[7]; [12],65
same,"Plant response rating, Cocklebur",[7]; [13],65
same,"Plant response rating, Cocklebur",[7]; [14],70
same,Cocklebur plant response rating,"[7]; 250 g ai/ha, scale 0 to 100",85
same,"Plant response rating, Surinam Grass",[8]; [15],0
same,"Plant response rating, Surinam Grass",[8]; [16],0
same,"Plant response rating, Surinam Grass",[8]; [17],10
same,Surinam Grass plant response rating,[8]; [18],20
same,Surinam Grass plant response rating (0 to 100 scale),[8]; [19],0
same,"Plant response rating, Canarygrass",[9]; [12],0
same,"Plant response rating, Canarygrass",[9]; [13],0
same,"Plant response rating, Canarygrass",[9]; [14],0
same,Canarygrass plant response rating,"[9]; 250 g ai/ha, scale 0 to 100",0
same,"Plant response rating, Windgrass",[10]; [12],0
same,"Plant response rating, Windgrass",[10]; [13],0
same,"Plant response rating, Windgrass",[10]; [14],0
same,Windgrass plant response rating,"[10]; 250 g ai/ha, scale 0 to 100",5
same,"Plant response rating, Chickweed",[11]; [12],55
same,"Plant response rating, Chickweed",[11]; [13],60
same,"Plant response rating, Chickweed",[11]; [14],65
same,Chickweed plant response rating,"[11]; 250 g ai/ha, scale 0 to 100",90
